Laboratory results: BindingDB's records for doi:10.1021/jm2017144 (Universidad De Granada, 2012)

Target: Superoxide dismutase [Cu-Zn], SOD1 (Homo sapiens) (UniProt P00441)
Experiment: Inhibition of human erythrocyte Cu-Zn SOD by NBT reduction assay

Sequence of Superoxide dismutase [Cu-Zn], SOD1 (Homo sapiens) (P00441 whole entry, looked up): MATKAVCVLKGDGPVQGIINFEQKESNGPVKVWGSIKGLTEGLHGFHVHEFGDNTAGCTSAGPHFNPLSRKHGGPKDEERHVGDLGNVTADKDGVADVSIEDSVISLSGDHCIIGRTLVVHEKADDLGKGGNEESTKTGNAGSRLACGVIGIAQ

Structure (SMILES) | IC50
Cn1nc2cc1CNCCNCCNCc1cc(n(C)n1)CNCCNCCNC2 | 96.6 µM
c1c2n[nH]c1CNCCN1CCNCc3cc(n[nH]3)CNCCN(CCNC2)CCNCc2cc([nH]n2)CNCC1 | 274 µM
CCCCCCCCN1CCNCc2cc([nH]n2)CNCCN(CCCCCCCC)CCNCc2cc(n[nH]2)CNCC1 | 89.2 µM
c1ccc(Cn2nc3cc2CNCCNCCNCc2cc(n(Cc4ccccc4)n2)CNCCNCCNC3)cc1 | 155 µM
